Reference: PubChem BioAssay AID248 (DTP/NCI, 2004)
Several values for one entry are separate records, joined by “and”; a condition that tells them apart may be missing. Equal values may be shown once. Inconclusive results and toxic doses are left out.

Tested on: L1210 leukemia ip in BDF1 mice, survival T/C
Assay: NCI In Vivo Anticancer Drug Screen. Data for tumor model L1210 Leukemia (intraperitoneal) in B6D2F1 (BDF1) mice
Conditions: endpoint: mean survival time, higher = longer survival
Summary of the method: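 Mice bearing the transplanted tumor received compound or vehicle. Survival of the treated group was divided by that of the vehicle-treated control group to give the ratio.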

[1] = dose: 100.0 mg/kg/injection, schedule: Q01DX001 (ip), vehicle: saline
[2] = dose: 100.0 mg/kg/injection, schedule: Q01DX009 (ip), vehicle: saline
[3] = dose: 200.0 mg/kg/injection, schedule: Q01DX001 (ip), vehicle: saline
[4] = dose: 200.0 mg/kg/injection, schedule: Q01DX009 (ip), vehicle: saline
[5] = dose: 400.0 mg/kg/injection, schedule: Q01DX001 (ip), vehicle: saline
[6] = dose: 400.0 mg/kg/injection, schedule: Q01DX009 (ip), vehicle: saline
[7] = dose: 100.0 mg/kg/injection, schedule: Q04DX003 (ip), vehicle: saline
[8] = dose: 200.0 mg/kg/injection, schedule: Q04DX003 (ip), vehicle: saline
[9] = dose: 100.0 mg/kg/injection, schedule: Q01DX001 (ip), vehicle: saline with Tween-80
[10] = dose: 200.0 mg/kg/injection, schedule: Q01DX001 (ip), vehicle: saline with Tween-80
[11] = dose: 50.0 mg/kg/injection, schedule: Q01DX001 (ip), vehicle: saline
[12] = dose: 50.0 mg/kg/injection, schedule: Q01DX009 (ip), vehicle: saline
[13] = dose: 100.0 mg/kg/injection, schedule: Q01DX001 (ip), vehicle: Klucel (hydroxypropylcellulose) (HPC)
[14] = dose: 100.0 mg/kg/injection, schedule: Q04DX003 (ip), vehicle: Klucel (hydroxypropylcellulose) (HPC)
[15] = dose: 200.0 mg/kg/injection, schedule: Q04DX003 (ip), vehicle: Klucel (hydroxypropylcellulose) (HPC)

CCCNC(=O)/C=C\C(=O)O
T/C [1]: 108 % of control | T/C [2]: 93 % of control | T/C [3]: 101 % of control | T/C [4]: 90 % of control | T/C [5]: 106 % of control | T/C [6]: 95 % of control

NC(=O)CC[n+]1cccc(C(=O)O)c1
T/C [2]: 93 % of control | T/C [7]: 94 % of control | T/C [4]: 88 % of control | T/C [8]: 93 % of control | T/C [6]: 92 % of control | T/C (dose: 400.0 mg/kg/injection, schedule: Q04DX003 (ip), vehicle: saline): 94 % of control

CC(=O)N(C)C1=C(Sc2ccc(Cl)cc2)C(=O)c2ccccc2C1=O
T/C (dose: 75.0 mg/kg/injection, schedule: Q01DX001 (ip), vehicle: carboxymethylcellulose (CMC)): 91 % of control | T/C (dose: 150.0 mg/kg/injection, schedule: Q01DX001 (ip), vehicle: carboxymethylcellulose (CMC)): 88 % of control

CCOC(=O)C(O)c1ccc[nH]1 (stereo not given)
T/C [9]: 115 % of control | T/C (dose: 100.0 mg/kg/injection, schedule: Q04DX003 (ip), vehicle: saline with Tween-80): 89 % of control | T/C [10]: 115 % of control | T/C (dose: 400.0 mg/kg/injection, schedule: Q01DX001 (ip), vehicle: saline with Tween-80): 111 % of control | T/C (dose: 400.0 mg/kg/injection, schedule: Q04DX003 (ip), vehicle: saline with Tween-80): 95 % of control

C=CC1CN2CCC1CC2C(=O)c1ccnc2ccc(OC)cc12 (stereo not given)
T/C [11]: 98 % of control | T/C [1]: 102 % of control | T/C [3]: 95 % of control | T/C [5]: 101 % of control

ClCCCN1CCCCC1CCl (stereo not given)
T/C (dose: 3.12 mg/kg/injection, schedule: Q01DX009 (ip), vehicle: saline): 114 % of control | T/C (dose: 6.25 mg/kg/injection, schedule: Q01DX009 (ip), vehicle: saline): 114 % of control | T/C (dose: 6.25 mg/kg/injection, schedule: Q04DX003 (ip), vehicle: saline): 111 % of control | T/C (dose: 12.5 mg/kg/injection, schedule: Q04DX003 (ip), vehicle: saline): 111 % of control | T/C (dose: 25.0 mg/kg/injection, schedule: Q04DX003 (ip), vehicle: saline): 150 % of control

CC(=O)O[C@@H]1[C@H]2O[C@H]2[C@H]2O[C@@]2(COC(=O)c2ccccc2)[C@H]1OC(C)=O
T/C (dose: 100.0 mg/kg/injection, schedule: Q01DX015 (ip), vehicle: carboxymethylcellulose (CMC)): 108 % of control | T/C (dose: 200.0 mg/kg/injection, schedule: Q01DX015 (ip), vehicle: carboxymethylcellulose (CMC)): 107 % of control | T/C (dose: 400.0 mg/kg/injection, schedule: Q01DX015 (ip), vehicle: carboxymethylcellulose (CMC)): 90 % of control

CC(=O)Nc1ccc(NC(=O)c2ccc(F)cc2)cc1
T/C (dose: 100.0 mg/kg/injection, schedule: Q01DX009 (ip), vehicle: gum acacia): 91 % of control | T/C (dose: 200.0 mg/kg/injection, schedule: Q01DX009 (ip), vehicle: gum acacia): 89 % of control | T/C (dose: 400.0 mg/kg/injection, schedule: Q01DX009 (ip), vehicle: gum acacia): 102 % of control

CN(C)N=Nc1ccc(C(=O)N/N=C/c2ccccc2)cc1
T/C (dose: 75.0 mg/kg/injection, schedule: Q04DX003 (ip), vehicle: Klucel (hydroxypropylcellulose) (HPC)): 99 % of control | T/C (dose: 150.0 mg/kg/injection, schedule: Q04DX003 (ip), vehicle: Klucel (hydroxypropylcellulose) (HPC)): 97 % of control | T/C (dose: 300.0 mg/kg/injection, schedule: Q04DX003 (ip), vehicle: Klucel (hydroxypropylcellulose) (HPC)): 100 % of control

CCOC(=O)c1cnc2ccccn2c1=O
T/C [12]: 96 % of control | T/C [9]: 92 % of control | T/C [2]: 93 % of control | T/C [7]: 92 % of control | T/C [10]: 94 % of control | T/C [4]: 101 % of control | T/C [8]: 94 % of control

N#Cc1c(Br)n(C2OC(CO)C(O)C2O)c2ncnc(N)c12 (stereo not given)
T/C [1]: 123 % of control | T/C (dose: 178.0 mg/kg/injection, schedule: Q01DX001 (ip), vehicle: saline): 104 % of control and 115 % of control | T/C (dose: 267.0 mg/kg/injection, schedule: Q01DX001 (ip), vehicle: saline): 110 % of control and 117 % of control | T/C [5]: 112 % of control and 121 % of control | T/C (dose: 600.0 mg/kg/injection, schedule: Q01DX001 (ip), vehicle: saline): 114 % of control

CSc1ccc(NC(=O)Nc2ccc(F)cc2)cc1
T/C (dose: 100.0 mg/kg/injection, schedule: Q01DX009 (ip), vehicle: Klucel (hydroxypropylcellulose) (HPC)): 96 % of control | T/C (dose: 200.0 mg/kg/injection, schedule: Q01DX009 (ip), vehicle: Klucel (hydroxypropylcellulose) (HPC)): 97 % of control

OCC1CC(n2cnc3c(NO)ncnc32)C(O)C1O (stereo not given)
T/C (dose: 25.0 mg/kg/injection, schedule: Q01DX009 (ip), vehicle: saline with Tween-80): 103 % of control | T/C (dose: 50.0 mg/kg/injection, schedule: Q01DX009 (ip), vehicle: saline with Tween-80): 92 % of control | T/C (dose: 75.0 mg/kg/injection, schedule: Q01DX009 (ip), vehicle: saline with Tween-80): 86 % of control

C=CC(=O)c1ccccc1
T/C (dose: 25.0 mg/kg/injection, schedule: Q04DX002 (ip), vehicle: saline with Tween-80): 100 % of control | T/C (dose: 50.0 mg/kg/injection, schedule: Q04DX002 (ip), vehicle: saline with Tween-80): 87 % of control | T/C (dose: 100.0 mg/kg/injection, schedule: Q04DX002 (ip), vehicle: saline with Tween-80): 94 % of control

Cc1nc(N)[nH]c(=O)c1CCCC#N
T/C [13]: 104 % of control | T/C (dose: 100.0 mg/kg/injection, schedule: Q04DX002 (ip), vehicle: Klucel (hydroxypropylcellulose) (HPC)): 97 % of control and 109 % of control | T/C [14]: 101 % of control | T/C (dose: 200.0 mg/kg/injection, schedule: Q01DX001 (ip), vehicle: Klucel (hydroxypropylcellulose) (HPC)): 98 % of control | T/C (dose: 200.0 mg/kg/injection, schedule: Q04DX002 (ip), vehicle: Klucel (hydroxypropylcellulose) (HPC)): 93 % of control and 103 % of control | T/C [15]: 112 % of control | T/C (dose: 400.0 mg/kg/injection, schedule: Q01DX001 (ip), vehicle: Klucel (hydroxypropylcellulose) (HPC)): 100 % of control | T/C (dose: 400.0 mg/kg/injection, schedule: Q04DX002 (ip), vehicle: Klucel (hydroxypropylcellulose) (HPC)): 104 % of control and 90 % of control

CCOc1cc(/C=N\Nc2nncn2N)c(C)cc1N(CCCl)CCCl
T/C (dose: 1.3 mg/kg/injection, schedule: Q01DX015 (ip), vehicle: carboxymethylcellulose (CMC)): 107 % of control | T/C (dose: 1.5 mg/kg/injection, schedule: Q01DX015 (ip), vehicle: carboxymethylcellulose (CMC)): 120 % of control | T/C (dose: 2.6 mg/kg/injection, schedule: Q01DX015 (ip), vehicle: carboxymethylcellulose (CMC)): 100 % of control | T/C (dose: 15.0 mg/kg/injection, schedule: Q01DX015 (ip), vehicle: carboxymethylcellulose (CMC)): 102 % of control and 109 % of control | T/C (dose: 22.0 mg/kg/injection, schedule: Q01DX001 (ip), vehicle: carboxymethylcellulose (CMC)): 118 % of control | T/C (dose: 50.0 mg/kg/injection, schedule: Q01DX001 (ip), vehicle: carboxymethylcellulose (CMC)): 110 % of control | T/C (dose: 100.0 mg/kg/injection, schedule: Q01DX001 (ip), vehicle: carboxymethylcellulose (CMC)): 123 % of control | T/C (dose: 200.0 mg/kg/injection, schedule: Q01DX001 (ip), vehicle: carboxymethylcellulose (CMC)): 89 % of control

CC#CS(=O)(=O)c1ccccc1
T/C [14]: 94 % of control | T/C [15]: 95 % of control | T/C (dose: 400.0 mg/kg/injection, schedule: Q04DX003 (ip), vehicle: Klucel (hydroxypropylcellulose) (HPC)): 98 % of control

Cc1ncc(C(N)=O)c2c1OC(C)(C)OC2
T/C [11]: 100 % of control | T/C [1]: 97 % of control | T/C [3]: 94 % of control | T/C [5]: 88 % of control

CCCCOc1ccc(N)cn1
T/C (dose: 25.0 mg/kg/injection, schedule: Q01DX009 (ip), vehicle: saline): 95 % of control | T/C [12]: 95 % of control | T/C [2]: 113 % of control | T/C [7]: 96 % of control

CCN=C(N)N=C(N)N
T/C (dose: 25.0 mg/kg/injection, schedule: Q01DX001 (ip), vehicle: saline): 96 % of control | T/C [11]: 106 % of control | T/C [1]: 102 % of control

CCCCCCCCCCCCCCC/C(CC)=N/Nc1ccc([N+](=O)[O-])cc1[N+](=O)[O-]
T/C (dose: 25.0 mg/kg/injection, schedule: Q01DX001 (ip), vehicle: Klucel (hydroxypropylcellulose) (HPC)): 103 % of control | T/C (dose: 50.0 mg/kg/injection, schedule: Q01DX001 (ip), vehicle: Klucel (hydroxypropylcellulose) (HPC)): 101 % of control | T/C [13]: 111 % of control
